Results on 1 compound are retold here after article PMC5218480 (PLoS ONE, 2017).

This assay concerns MV-4-11 cells. The experiment in a line: Gene expression microarray analysis (Affymetrix PrimeView) and GSEA. To be noted: MV-4-11 cells, 48 hours. It counts as cell-based, human. Also noted: RFU PODN (11730768_x_at) / Fold change /veh PODN (11730768_x_at) / RFU LINC00158 (11744669_a_at) / Fold change /veh LINC00158 (11744669_a_at) / RFU DUSP10 (11751237_a_at) / Fold change /veh DUSP10 (11751237_a_at) / RFU ID3 (11757404_x_at) / Fold change /veh ID3 (11757404_x_at) / RFU PLEKHG5 (11737974_s_at) / Fold change /veh PLEKHG5 (11737974_s_at) / RFU LRRC4B (11730491_at) / Fold change /veh LRRC4B (11730491_at) / RFU GIMAP4 (11747438_a_at) / Fold change /veh GIMAP4 (11747438_a_at) / RFU KRT8 (11758183_x_at) / Fold change /veh KRT8 (11758183_x_at) / RFU CNN1 (11734310_a_at) / Fold change /veh CNN1 (11734310_a_at) / RFU VPS37D (11726825_at) / Fold change /veh VPS37D (11726825_at) / RFU C10orf10 (11716522_x_at) / Fold change /veh C10orf10 (11716522_x_at) / RFU KIR2DL2 /// KIR2DL4 /// KIR2DL5A /// KIR2DL5B /// KIR2DS1 /// KIR2DS2 /// KIR2DS3 /// KIR2DS4 /// KIR3DL3 /// KIR3DL3 /// KIR3DS1 (11738374_at) / Fold change /veh KIR2DL2 /// KIR2DL4 /// KIR2DL5A /// KIR2DL5B /// KIR2DS1 /// KIR2DS2 /// KIR2DS3 /// KIR2DS4 /// KIR3DL3 /// KIR3DL3 /// KIR3DS1 (11738374_at) / RFU C1QL1 (11718748_at) / Fold change /veh C1QL1 (11718748_at) / RFU TMPRSS4 (11747572_a_at) / Fold change /veh TMPRSS4 (11747572_a_at) / RFU HAMP (11756126_x_at) / Fold change /veh HAMP (11756126_x_at) / RFU RNFT2 (11725882_a_at) / Fold change /veh RNFT2 (11725882_a_at) / RFU NR4A2 (11747474_a_at) / Fold change /veh NR4A2 (11747474_a_at) / RFU ABCC12 (11746883_a_at) / Fold change /veh ABCC12 (11746883_a_at) / RFU TMEM136 (11760407_x_at) / Fold change /veh TMEM136 (11760407_x_at) / RFU CLDN22 /// WWC2 (11732394_at) / Fold change /veh CLDN22 /// WWC2 (11732394_at) / RFU HLA-DPB1 (11760878_x_at) / Fold change /veh HLA-DPB1 (11760878_x_at) / RFU SPINT1 (11716480_a_at) / Fold change /veh SPINT1 (11716480_a_at) / RFU GAP43 (11754022_s_at) / Fold change /veh GAP43 (11754022_s_at) / RFU A4GNT (11735810_at) / Fold change /veh A4GNT (11735810_at) / RFU PRB3 (11715151_x_at) / Fold change /veh PRB3 (11715151_x_at) / RFU TUBB4B (11761932_at) / Fold change /veh TUBB4B (11761932_at) / RFU CAPN14 (11732068_a_at) / Fold change /veh CAPN14 (11732068_a_at) / RFU TMCC2 (11721928_a_at) / Fold change /veh TMCC2 (11721928_a_at) / RFU IRGQ (11745062_a_at) / Fold change /veh IRGQ (11745062_a_at) / RFU FAM174B (11720279_a_at) / Fold change /veh FAM174B (11720279_a_at) / RFU TMPRSS4 (11748680_a_at) / Fold change /veh TMPRSS4 (11748680_a_at) / RFU FAM212B (11763350_a_at) / Fold change /veh FAM212B (11763350_a_at) / RFU PLEKHG5 (11743358_a_at) / Fold change /veh PLEKHG5 (11743358_a_at) / RFU ZSCAN30 (11745921_a_at) / Fold change /veh ZSCAN30 (11745921_a_at) / RFU CMKLR1 (11741424_a_at) / Fold change /veh CMKLR1 (11741424_a_at) / RFU LOC101060620 /// MAPK8IP1 (11723275_at) / Fold change /veh LOC101060620 /// MAPK8IP1 (11723275_at) / RFU SPTSSB (11747773_x_at) / Fold change /veh SPTSSB (11747773_x_at) / RFU PRSS12 (11739890_at) / Fold change /veh PRSS12 (11739890_at) / RFU BIN1 (11741810_x_at) / Fold change /veh BIN1 (11741810_x_at) / RFU WNT11 (11732464_a_at) / Fold change /veh WNT11 (11732464_a_at) / RFU C10orf10 (11716521_a_at) / Fold change /veh C10orf10 (11716521_a_at) / RFU C5orf56 (11738089_at) / Fold change /veh C5orf56 (11738089_at) / RFU CYB561 (11721691_x_at) / Fold change /veh CYB561 (11721691_x_at) / RFU ANKRD19P (11752326_a_at) / Fold change /veh ANKRD19P (11752326_a_at) / RFU OR2T12 /// OR2T33 /// OR2T8 (11738714_s_at) / Fold change /veh OR2T12 /// OR2T33 /// OR2T8 (11738714_s_at) / RFU VCAN (11748164_a_at) / Fold change /veh VCAN (11748164_a_at) / RFU JSRP1 (11732532_at) / Fold change /veh JSRP1 (11732532_at) / RFU KRTAP10-11 (11738290_x_at) / Fold change /veh KRTAP10-11 (11738290_x_at) / RFU MYO3A (11730013_a_at) / Fold change /veh MYO3A (11730013_a_at) / RFU EBF3 (11725865_a_at) / Fold change /veh EBF3 (11725865_a_at) / RFU CAMK2N1 (11719241_x_at) / Fold change /veh CAMK2N1 (11719241_x_at) / RFU C5orf56 (11738088_a_at) / Fold change /veh C5orf56 (11738088_a_at) / RFU OLFML3 (11715873_a_at) / Fold change /veh OLFML3 (11715873_a_at) / RFU LOC100653217 /// NTM (11731650_a_at) / Fold change /veh LOC100653217 /// NTM (11731650_a_at) / RFU MAPK11 (11762145_a_at) / Fold change /veh MAPK11 (11762145_a_at) / RFU FIZ1 (11724087_x_at) / Fold change /veh FIZ1 (11724087_x_at) / RFU OASL (11726364_x_at) / Fold change /veh OASL (11726364_x_at) / RFU SOX15 (11748057_x_at) / Fold change /veh SOX15 (11748057_x_at) / RFU CD79A (11719716_a_at) / Fold change /veh CD79A (11719716_a_at) / RFU HIST1H1D (11736915_at) / Fold change /veh HIST1H1D (11736915_at) / RFU CASKIN2 (11723855_a_at) / Fold change /veh CASKIN2 (11723855_a_at) / RFU LOC730098 (11760151_x_at) / Fold change /veh LOC730098 (11760151_x_at) / RFU OR4N2 (11742367_at) / Fold change /veh OR4N2 (11742367_at) / RFU PRRT2 (11749266_a_at) / Fold change /veh PRRT2 (11749266_a_at) / RFU SNX32 (11753110_a_at) / Fold change /veh SNX32 (11753110_a_at) / RFU CDHR5 (11726645_a_at) / Fold change /veh CDHR5 (11726645_a_at) / RFU RCAN1 (11760418_a_at) / Fold change /veh RCAN1 (11760418_a_at) / RFU FAM167A (11723789_a_at) / Fold change /veh FAM167A (11723789_a_at) / RFU FAM26E (11764081_at) / Fold change /veh FAM26E (11764081_at) / RFU ISYNA1 (11749810_s_at) / Fold change /veh ISYNA1 (11749810_s_at) / RFU ACY1 (11761880_at) / Fold change /veh ACY1 (11761880_at) / RFU 11764098_at / Fold change /veh 11764098_at / RFU SAMD14 (11745864_x_at) / Fold change /veh SAMD14 (11745864_x_at) / RFU NPB (11741838_a_at) / Fold change /veh NPB (11741838_a_at) / RFU TMPRSS6 (11731388_a_at) / Fold change /veh TMPRSS6 (11731388_a_at) / RFU KRTAP10-2 (11738614_at) / Fold change /veh KRTAP10-2 (11738614_at) / RFU ARHGAP8 /// PRR5-ARHGAP8 (11727945_x_at) / Fold change /veh ARHGAP8 /// PRR5-ARHGAP8 (11727945_x_at) / RFU KRTAP5-7 /// NADSYN1 (11734609_at) / Fold change /veh KRTAP5-7 /// NADSYN1 (11734609_at) / RFU RASL12 (11751679_a_at) / Fold change /veh RASL12 (11751679_a_at) / RFU CDKN2B (11736163_a_at) / Fold change /veh CDKN2B (11736163_a_at) / RFU PRF1 (11729649_at) / Fold change /veh PRF1 (11729649_at) / RFU, ZNF638 /// ZNF638-IT1 / Fold change vs veh, ZNF638 /// ZNF638-IT1 / RFU, PANK3 / Fold change vs veh, PANK3 / RFU, SH3YL1 / Fold change vs veh, SH3YL1 / RFU, ZEB2 / Fold change vs veh, ZEB2 / RFU, NRIP1 / Fold change vs veh, NRIP1 / RFU, PTTG1IP / Fold change vs veh, PTTG1IP / RFU, CAPN2 / Fold change vs veh, CAPN2 / RFU, MED14 / Fold change vs veh, MED14 / RFU, SNORA58 / Fold change vs veh, SNORA58 / RFU, C1orf63 / Fold change vs veh, C1orf63 / RFU, LRRFIP1 / Fold change vs veh, LRRFIP1 / RFU, NDUFAF7 / Fold change vs veh, NDUFAF7 / RFU, SLC12A2 / Fold change vs veh, SLC12A2 / RFU, IBTK / Fold change vs veh, IBTK / RFU, ESF1 / Fold change vs veh, ESF1 / Fold change vs veh, TMEM50B / RFU, TAOK1 / Fold change vs veh, TAOK1 / RFU, ACBD3 / Fold change vs veh, ACBD3 / RFU, TMA16 / Fold change vs veh, TMA16 / RFU, RWDD3 / Fold change vs veh, RWDD3 / RFU, BCAT1 / Fold change vs veh, BCAT1 / RFU, EDEM3 / Fold change vs veh, EDEM3 / RFU, TMEM33 / Fold change vs veh, TMEM33 / RFU, WDR75 / Fold change vs veh, WDR75 / RFU, AHCTF1 / Fold change vs veh, AHCTF1 / RFU, TFRC / Fold change vs veh, TFRC / RFU, ZDHHC17 / Fold change vs veh, ZDHHC17 / RFU, NOM1 / Fold change vs veh, NOM1 / RFU, ARL8B / Fold change vs veh, ARL8B / RFU, ZBTB11 / Fold change vs veh, ZBTB11 / RFU, TAMM41 / Fold change vs veh, TAMM41 / RFU, KIAA1704 /// LOC100996395 / Fold change vs veh, KIAA1704 /// LOC100996395 / RFU, ING1 / Fold change vs veh, ING1 / RFU, TRMT61B / Fold change vs veh, TRMT61B / RFU, FUBP3 / Fold change vs veh, FUBP3 / RFU, TP53 / Fold change vs veh, TP53 / RFU, TNKS2 / Fold change vs veh, TNKS2 / RFU, ZFP14 / Fold change vs veh, ZFP14 / RFU, ACTR2 / Fold change vs veh, ACTR2 / RFU, PPP3R1 / Fold change vs veh, PPP3R1 / RFU, PIK3R1 / Fold change vs veh, PIK3R1 / RFU, HNRNPA1 / Fold change vs veh, HNRNPA1 / RFU, RNF170 / Fold change vs veh, RNF170 / RFU, ZNF28 / Fold change vs veh, ZNF28 / RFU, RNGTT / Fold change vs veh, RNGTT / RFU, OGT / Fold change vs veh, OGT / RFU, BRD1 / Fold change vs veh, BRD1 / RFU, MARS / Fold change vs veh, MARS / RFU, ZNF655 / Fold change vs veh, ZNF655 / RFU, FAHD1 / Fold change vs veh, FAHD1 / RFU, BDP1 / Fold change vs veh, BDP1 / RFU, LRRCC1 / Fold change vs veh, LRRCC1 / RFU, ARID1A / Fold change vs veh, ARID1A / RFU, ZNF146 / Fold change vs veh, ZNF146 / RFU, ZNF330 / Fold change vs veh, ZNF330 / RFU, GPN3 / Fold change vs veh, GPN3 / RFU, C9orf123 / Fold change vs veh, C9orf123 / RFU, N4BP2L2 / Fold change vs veh, N4BP2L2 / RFU, ARFIP1 / Fold change vs veh, ARFIP1 / RFU, FAM179B / Fold change vs veh, FAM179B / RFU, BCL10 / Fold change vs veh, BCL10 / RFU, UHRF1BP1L / Fold change vs veh, UHRF1BP1L / RFU, BET1 / Fold change vs veh, BET1 / RFU, CNOT2 / Fold change vs veh, CNOT2 / RFU, ZNF268 / Fold change vs veh, ZNF268 / Fold change vs veh, ZNF507 / RFU, DGCR2 / Fold change vs veh, DGCR2 / RFU, WDSUB1 / Fold change vs veh, WDSUB1 / Fold change vs veh, HSP90B1 /// MIR3652 / RFU, ADSS / Fold change vs veh, ADSS / RFU, GK / Fold change vs veh, GK / RFU, ZNF148 / Fold change vs veh, ZNF148 / RFU, TAF9 / Fold change vs veh, TAF9 / RFU, SLC1A5 / Fold change vs veh, SLC1A5 / RFU, SLMO2 / Fold change vs veh, SLMO2 / RFU, ABCC4 / Fold change vs veh, ABCC4 / RFU, LOC101060439 /// RAP1B / Fold change vs veh, LOC101060439 /// RAP1B / RFU, RFX7 / Fold change vs veh, RFX7 / RFU, GTPBP10 / Fold change vs veh, GTPBP10 / RFU, CNEP1R1 / Fold change vs veh, CNEP1R1 / RFU, BIVM-ERCC5 /// ERCC5 / Fold change vs veh, BIVM-ERCC5 /// ERCC5 / RFU, ILF3 / Fold change vs veh, ILF3 / RFU 11762660_at / Fold change /veh 11762660_at / RFU VCAN (11757783_s_at) / Fold change /veh VCAN (11757783_s_at) / RFU DDX43 (11728927_at) / Fold change /veh DDX43 (11728927_at) / RFU KRT8 (11758188_x_at) / Fold change /veh KRT8 (11758188_x_at) / RFU NKD1 (11759106_at) / Fold change /veh NKD1 (11759106_at) / RFU SRD5A1 (11742802_a_at) / Fold change /veh SRD5A1 (11742802_a_at) / RFU TPSAB1 /// TPSB2 (11721975_s_at) / Fold change /veh TPSAB1 /// TPSB2 (11721975_s_at) / RFU GSTM3 (11746129_a_at) / Fold change /veh GSTM3 (11746129_a_at) / RFU IL23R (11737362_x_at) / Fold change /veh IL23R (11737362_x_at) / RFU TMEM51 (11727254_a_at) / Fold change /veh TMEM51 (11727254_a_at) / RFU PIWIL2 (11732686_x_at) / Fold change /veh PIWIL2 (11732686_x_at) / RFU ORM1 (11744905_x_at) / Fold change /veh ORM1 (11744905_x_at) / RFU CCDC152 (11743942_at) / Fold change /veh CCDC152 (11743942_at) / RFU ECM1 (11717891_a_at) / Fold change /veh ECM1 (11717891_a_at) / RFU IL23R (11748794_a_at) / Fold change /veh IL23R (11748794_a_at) / RFU TNFAIP8L3 (11732012_x_at) / Fold change /veh TNFAIP8L3 (11732012_x_at) / RFU MBOAT4 (11741988_at) / Fold change /veh MBOAT4 (11741988_at) / RFU 11764193_at / Fold change /veh 11764193_at / RFU TMEM53 (11763286_at) / Fold change /veh TMEM53 (11763286_at) / RFU MAGEB2 (11727129_at) / Fold change /veh MAGEB2 (11727129_at) / RFU TMEM200A (11744735_a_at) / Fold change /veh TMEM200A (11744735_a_at) / RFU CCDC152 (11751479_a_at) / Fold change /veh CCDC152 (11751479_a_at) / RFU FAM211A (11726209_a_at) / Fold change /veh FAM211A (11726209_a_at) / RFU RGS16 (11746705_a_at) / Fold change /veh RGS16 (11746705_a_at) / RFU VCAN (11755009_s_at) / Fold change /veh VCAN (11755009_s_at) / RFU RHOB (11743442_s_at) / Fold change /veh RHOB (11743442_s_at) / RFU RGS16 (11720943_a_at) / Fold change /veh RGS16 (11720943_a_at) / RFU RGS16 (11720944_at) / Fold change /veh RGS16 (11720944_at) / RFU, VPS4B / Fold change vs veh, VPS4B / RFU, CREB1 / Fold change vs veh, CREB1 / RFU, DNAJC13 / Fold change vs veh, DNAJC13 / RFU, GNAQ / Fold change vs veh, GNAQ / RFU, CDK5R1 / Fold change vs veh, CDK5R1 / RFU, ZRANB3 / Fold change vs veh, ZRANB3 / RFU, CUL4A / Fold change vs veh, CUL4A / RFU, CCNY / Fold change vs veh, CCNY / RFU, UFL1 / Fold change vs veh, UFL1 / RFU, COG3 / Fold change vs veh, COG3 / RFU, DIAPH2 / Fold change vs veh, DIAPH2 / RFU, SKA2 / Fold change vs veh, SKA2 / RFU, AFF3 / Fold change vs veh, AFF3 / RFU, LMF1 / Fold change vs veh, LMF1 / RFU, IPO11 / Fold change vs veh, IPO11 / RFU, DFFB / Fold change vs veh, DFFB / RFU, FOXP1 / Fold change vs veh, FOXP1 / RFU, CARD8 / Fold change vs veh, CARD8 / RFU, STRN3 / Fold change vs veh, STRN3 / RFU, ADK / Fold change vs veh, ADK / RFU, RASSF2 / Fold change vs veh, RASSF2 / RFU, WIPF1 / Fold change vs veh, WIPF1 / RFU, LARP1B / Fold change vs veh, LARP1B / RFU, RASA1 / Fold change vs veh, RASA1 / RFU, RB1 / Fold change vs veh, RB1 / RFU, PPFIA1 / Fold change vs veh, PPFIA1 / RFU, MAT2A / Fold change vs veh, MAT2A / RFU, CCT5 / Fold change vs veh, CCT5 / RFU, WDR92 / Fold change vs veh, WDR92 / RFU, CUX1 / Fold change vs veh, CUX1 / RFU, TTC7A / Fold change vs veh, TTC7A / RFU, TMEM135 / Fold change vs veh, TMEM135 / RFU, DEPTOR / Fold change vs veh, DEPTOR / RFU, CPM / Fold change vs veh, CPM / RFU, DNAJB6 / Fold change vs veh, DNAJB6 / RFU, CACNA2D3 / Fold change vs veh, CACNA2D3 / RFU, DTX4 / Fold change vs veh, DTX4 / RFU, TFCP2 / Fold change vs veh, TFCP2 / RFU, GMCL1 /// GMCL1P1 / Fold change vs veh, GMCL1 /// GMCL1P1 / RFU, AEBP2 / Fold change vs veh, AEBP2 / RFU, SNHG1 /// SNORD22 /// SNORD25 /// SNORD26 /// SNORD27 /// SNORD28 /// SNORD29 /// SNORD31 / Fold change vs veh, SNHG1 /// SNORD22 /// SNORD25 /// SNORD26 /// SNORD27 /// SNORD28 /// SNORD29 /// SNORD31 / Fold change (Aza/veh), C12orf56 (ProbeSet 11735607_a_at) / Fold change (ACY-1035/veh), C12orf56 (ProbeSet 11735607_a_at) / Fold change (Aza/veh), FGFR1OP (ProbeSet 11751329_s_at) / Fold change (ACY-1035/veh), FGFR1OP (ProbeSet 11751329_s_at) / Fold change (Aza/veh), VPS36 (ProbeSet 11739960_a_at) / Fold change (ACY-1035/veh), VPS36 (ProbeSet 11739960_a_at) / RFU SYPL1 (11715823_x_at) / Fold change /veh SYPL1 (11715823_x_at) / RFU IGFBP7 (11715501_s_at) / Fold change /veh IGFBP7 (11715501_s_at) / RFU REEP3 (11722064_at) / Fold change /veh REEP3 (11722064_at) / RFU IGLL1 (11728026_x_at) / Fold change /veh IGLL1 (11728026_x_at): dose or concentration left out as unconfirmed.

With `Nc1ncn([C@@H]2O[C@H](CO)[C@@H](O)[C@H]2O)c(=O)n1` [azacitidine], the “Fold change /veh ISYNA1 (11749810_s_at)” value came out at 1.06.
